Measurements taken from patent publication US12304912B2, “Fused bicyclic RAF inhibitors and methods for use thereof” (Jazz Pharmaceuticals Ireland Limited, priority 2020, dated 2025).
Like-named read-outs stand apart in the source and are kept apart here.

Columns and labels:
[1] = test system: RAF dimers in HCT-116 cells; experiment: HCT-116 AlphaLISA SureFire pERK1/2 cellular assay (dimer); format: cell-based; conditions: Homo sapiens, HCT-116; HCT116 cells, dimer, 1 hr; read-out: pERK HCT116 dimer (1 hr) plC50 (converted)
In short: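 HCT-116 (KRAS G13D) cells, 30,000/well, pretreated 1 h with 1 μM Encorafenib to induce RAF dimers, washed, then dosed 1 h at 37° C with compound (10-point, top 10 μM, 1/2 log steps) in growth medium. pERK1/2 (T202/Y204) measured by AlphaLISA SureFire; absolute IC50 versus DMSO control.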

HCT-116 cells = experiment: HCT-116 CellTiter-Glo 3D cell proliferation assay; format: cell-based; conditions: Homo sapiens
Procedure: HCT-116 CellTiter-Glo 3D Cell Proliferation Assay
The human HCT-116 colorectal carcinoma cell line (ATCC CCL-247) endogenously expresses the KRAS^G13D mutation, which leads to enhanced survival and proliferative signaling. […] On the first day, HCT-116 cells were harvested, resuspended in growth medium (McCoys5A with Glutamax (Life Technologies 36600021) with 10% heat-inactivated fetal bovine serum (Sigma F9665)), and counted. Cells were plated in 100 μl per well in each well of a Corning 7007 96-well clear round bottom Ultra-Low Attachment plate (VWR 444-1020) to a final density of 1000 cells per well. Cells were seeded for pre- and post-treatment readouts. The cells were then incubated at 37° C. and 5% CO2 for 3 days (72 hours) to allow spheroid formation. After 72 hours, the plate seeded for a pre-treatment read was removed from the incubator to allow equilibration to room temperature for 30 minutes, before CellTitre-Glo® reagent was added to each well. The plates were incubated at room temperature for 5 minutes shaking at 300 rpm, followed by an incubation of 25 minutes on the benchtop before being read on the Envision reader (Perkin Elmer) as described below. On the same day, the cells plated for the post-treatment readout were dosed with compounds to produce a 9-point dose response, where the top concentration was 15 μM and following concentrations were at 1/2 log dilution intervals. These cells were subsequently incubated at 37° C. and 5% CO2 for another 4 days (96 hours). After 4 days, the plate was removed from the incubator to allow equilibration to room temperature for 30 minutes and treated with CellTitre Glo® reagent as stated above. […] The CellTitre Glo® reagent lyses the cells and contains luciferin and a luciferase (Ultra-Glo™ Recombinant Luciferase), which in the presence of ATP and oxygen can produce bioluminescence from luciferin. Therefore, plates were read on an EnVision reader (Perkin Elmer) and luminescence signals were recorded. Cell proliferation was determined on 4 days after dosing relative to the pre-treatment read. All data were analyzed using the Dotmatics or GraphPad Prism software packages. Inhibition of proliferation was assessed by determination of the GI50 value, which was defined as the concentration of compound required to decrease the level of cell proliferation by 50% when compared to DMSO control.

[2] = Plasma protein binding assay, human plasma (hPPB); format: in vitro ADME; conditions: 5 μM, equilibrium dialysis 4 hours at 37° C.
In short: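 Equilibrium dialysis of 5 μM compound in previously frozen human or mouse plasma against phosphate buffer, 4 h at 37 °C. Both chambers quantified by LC-MS/MS; % free = (1−((PC−PF)/PC))×100.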

WiDr cells = experiment: WiDr CellTiter-Glo 3D cell proliferation assay; format: cell-based; conditions: Homo sapiens, read-out: 3D WiDr pGI50 (converted)
[3] = HCT-116, HCT116 cells, 3D proliferation, read-out: 3D HCT116 pGI50 (converted)

Row | SMILES | IC50 [1] | GI50 (HCT-116 cells; [3]) | hPPB (% free) [2] | GI50 (WiDr cells; WiDr cells, 3D proliferation) | GI50 (HCT-116 cells; HCT-116, read-out: 3D HCT116 pGI50 (converted)) | GI50 (WiDr cells; WiDr)
1 | O=C(CN1CCOCC1)Nc1cc(Oc2ccc3c(c2)CC(c2nc(-c4ccccc4)c[nH]2)CO3)ccn1 (stereo not drawn) [Compound 149] | 363 nM | 851 nM | 0.25 % free | 2240 nM | – | –
2 | O=C(Nc1cc(Oc2ccc3c(c2)CC(c2nc(-c4ccccc4)c[nH]2)CO3)ncn1)C1CC1 (stereo not drawn) [Compound 151, N-[6-[3-(4-phenyl-1H-imidazol-2-yl)chroman-6-yl]oxypyrimidin-4-yl]cyclopropanecarboxamide] | 204 nM | – | 0.21 % free | – | 380 nM | 1150 nM
3 | O=C(CN1CCCC1)Nc1cc(Oc2ccc3c(c2)CC(c2nc(-c4ccccc4)c[nH]2)CO3)ccn1 (stereo not drawn) [Compound 152] | 275 nM | 832 nM | 0.48 % free | 5620 nM | – | –
4 | O=C(CN1CC(O)C1)Nc1cc(Oc2ccc3c(c2)CC(c2nc(-c4ccccc4)c[nH]2)CO3)ccn1 (stereo not drawn) [Compound 153] | 126 nM | 427 nM | 0.39 % free | 5620 nM | – | –
5 | O=C(Cn1cncn1)Nc1cc(Oc2ccc3c(c2)CC(c2nc(-c4ccccc4)c[nH]2)CO3)ccn1 (stereo not drawn) [Compound 154] | 38 nM | 61.7 nM | 0.75 % free | 661 nM | – | –
6 | O=C(Nc1cc(Oc2ccc3c(c2)CC(c2nc(-c4ccc(F)cc4)c[nH]2)CO3)ccn1)C1CC1 (stereo not drawn) [Compound 155, N-[4-[3-[4-(4-fluorophenyl)-1H-imidazol-2-yl]chroman-6-yl]oxy-2-pyridyl]cyclopropanecarboxamide] | 72.4 nM | 100 nM | 0.1 % free | 631 nM | – | –
7 | CC(=O)Nc1cc(Oc2ccc3c(c2)CC(c2nc(-c4ccccc4)c[nH]2)CO3)ccn1 (stereo not drawn) [Compound 156, N-[4-[3-(4-phenyl-1H-imidazol-2-yl)chroman-6-yl]oxy-2-pyridyl]acetamide] | 52.5 nM | 89.1 nM | 0.5 % free | 269 nM | – | –
8 | CC1CC1C(=O)Nc1cc(Oc2ccc3c(c2)CC(c2nc(-c4ccccc4)c[nH]2)CO3)ccn1 (stereo not drawn) [Compound 157] | 174 nM | 263 nM | <0.1 % free | 661 nM | – | –
9 | O=C1CCc2c(Oc3ccc4c(c3)CN(c3nc5cc(C(F)(F)F)ccc5[nH]3)CC4)ccnc2N1 [Compound 160] | 347 nM | 617 nM | 0.3 % free | 2090 nM | – | –
